Experimental data: patent US10577349B2 (Sanford Burnham Prebys Medical Discovery Institute, priority 2015, dated 2020)

Legend:
[1] = system: Nras^Q61K/Ink4a^−/− melanoma tumors; assay: Inducible Nras^Q61K/Ink4a^−/− genetic melanoma model; assay type: in vivo, mice; conditions: 0.5 mg/kg intraperitoneal twice a week from week 11; compared with control nontreated group
Method: In vivo, Compound 38 was evaluated using an inducible Nras^Q61K/Ink4a^−/− genetic model in which melanoma tumors emerge within 16 to 20 weeks (FIG. 20). Administration of Compound 38 only, starting 11 weeks after genetic inactivation of Ink4a and induction of […] (about 10-14 days prior to tumor appearance), delayed tumor onset (from 20-26 weeks), and reduced tumor incidence, by 50%, compared with the control nontreated group. Mice of the Nras^Q61K:Ink4a^−/− genotype or WT mice (38-40 mice for each genotype) were administered vehicle or Compound 38 at 0.5 mg/kg by intraperitoneal injection twice a week starting at week 11 after Nras^Q61K activation and Ink4a inactivation. Tumor development was monitored twice per week. Latency and frequency of melanoma development over the 21-week treatment period (weeks 11-32) are shown.

[2] = biological target: T1, eIF4F complex (Mus musculus, UniProt Q6NZJ6); assay: m7GTP pull-down assay, WT or 4E-BP DKO MEFs; assay type: cell-based; conditions: 6 hours, Torin1 250 nmol/L
T1 construct: endogenous in cells; host or cells: WT and 4E-BP1/2 double-knock-out MEFs
T1 sequence (Q6NZJ6 whole entry, one chain of several): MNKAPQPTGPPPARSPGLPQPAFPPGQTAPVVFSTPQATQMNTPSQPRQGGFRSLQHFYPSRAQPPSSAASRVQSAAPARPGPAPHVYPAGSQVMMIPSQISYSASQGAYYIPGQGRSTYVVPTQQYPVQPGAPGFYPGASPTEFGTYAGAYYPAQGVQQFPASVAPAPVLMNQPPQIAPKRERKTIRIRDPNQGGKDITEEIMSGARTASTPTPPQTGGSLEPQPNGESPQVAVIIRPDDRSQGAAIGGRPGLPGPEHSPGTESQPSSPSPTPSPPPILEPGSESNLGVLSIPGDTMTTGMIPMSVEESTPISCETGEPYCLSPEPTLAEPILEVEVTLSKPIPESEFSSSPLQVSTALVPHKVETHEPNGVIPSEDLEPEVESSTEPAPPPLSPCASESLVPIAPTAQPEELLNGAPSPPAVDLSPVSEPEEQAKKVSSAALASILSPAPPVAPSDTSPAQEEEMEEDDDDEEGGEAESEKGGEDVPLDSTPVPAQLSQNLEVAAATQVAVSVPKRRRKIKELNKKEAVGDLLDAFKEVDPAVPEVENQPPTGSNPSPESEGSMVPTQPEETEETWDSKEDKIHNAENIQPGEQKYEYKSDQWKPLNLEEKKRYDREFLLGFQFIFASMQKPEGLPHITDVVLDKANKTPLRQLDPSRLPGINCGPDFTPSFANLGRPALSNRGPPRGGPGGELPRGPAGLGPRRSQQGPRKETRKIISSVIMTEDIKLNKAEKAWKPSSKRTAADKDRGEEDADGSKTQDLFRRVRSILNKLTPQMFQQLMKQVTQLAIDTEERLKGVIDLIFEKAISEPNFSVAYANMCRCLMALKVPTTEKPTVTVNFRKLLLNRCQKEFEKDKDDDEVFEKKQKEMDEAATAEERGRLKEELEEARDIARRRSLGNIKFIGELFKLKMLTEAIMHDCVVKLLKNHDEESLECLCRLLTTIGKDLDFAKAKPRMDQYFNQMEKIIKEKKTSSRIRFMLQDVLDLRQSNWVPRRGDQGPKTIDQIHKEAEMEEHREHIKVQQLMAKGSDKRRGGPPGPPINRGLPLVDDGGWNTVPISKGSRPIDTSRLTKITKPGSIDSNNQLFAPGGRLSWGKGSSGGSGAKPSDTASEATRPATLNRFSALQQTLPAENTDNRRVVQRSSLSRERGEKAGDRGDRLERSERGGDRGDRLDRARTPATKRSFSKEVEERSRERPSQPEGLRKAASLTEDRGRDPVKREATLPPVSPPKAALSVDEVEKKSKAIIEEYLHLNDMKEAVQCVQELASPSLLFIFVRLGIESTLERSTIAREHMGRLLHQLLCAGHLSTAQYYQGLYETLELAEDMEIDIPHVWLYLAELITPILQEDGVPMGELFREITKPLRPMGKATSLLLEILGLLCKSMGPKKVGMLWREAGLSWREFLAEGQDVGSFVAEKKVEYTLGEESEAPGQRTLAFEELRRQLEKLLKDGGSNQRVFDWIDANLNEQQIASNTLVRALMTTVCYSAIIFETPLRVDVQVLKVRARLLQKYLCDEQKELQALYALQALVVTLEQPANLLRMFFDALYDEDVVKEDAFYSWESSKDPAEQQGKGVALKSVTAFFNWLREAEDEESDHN
Method: (§1) As previously described (Dowling R J, et al. mTORC1-mediated cell proliferation, but not cell growth, controlled by the 4E-BPs. Science. 2010; 328:1172-6), cells growing in 100 mm plates were washed (cold PBS), collected, and lysed in 50 mM MOPS/KOH (7.4), 100 mM NaCl, 50 mM NaF, 2 mM EDTA, 2 mM EGTA, 1% NP40, 1% Na-DOC, 7 mM β-mercaptoethanol, protease inhibitors and phosphatase inhibitor cocktail (Roche). Lysates were incubated with m7-GDP-agarose beads (Jena Bioscience) for 20 minutes, washed 4 times with the washing buffer containing 50 mM MOPS/KOH (7.4), 100 mM NaCl, 50 mM NaF, 0.5 mM EDTA, 0.5 mM EGTA, 7 mM (3-mercaptoethanol, 0.5 mM PMSF, 1 mM Na3VO4 and 0.1 mM GTP, and bound proteins were eluted by boiling the beads in loading buffer. m7-GDP-agarose pulled down material was analyzed by Western blot analysis.
Indicated cultures (WT or DKO 4E-BP) were treated with Torin1 (250 nmol/L) or indicated Compound 38 concentrations for 6 hours. Western blots show respective protein levels in total cell lysates or following pull-down using m^7GTP agarose beads. […] P3-Actin served as a loading control and to exclude contamination in m^7GTP pull-down.

[3] = Compound 38 PK Study; assay type: in vivo, C57Bl/6J mice; conditions: male, C57Bl/6J, mouse, plasma
Method: Method: Fasted male C57Bl/6J mice were dosed with a 1 mg/mL solution of Compound 38 in 10% DMSO, 10% Tween-80 and 80% water by intravenous injection (2 mg/kg, as a 0.4 mg/mL solution), oral gavage (10 mg/kg as a 1 mg/mL solution) or intraperitoneal injection (10 mg/kg as a 1 mg/mL solution). Plasma was collected at various time points and analyzed by LC/MS/MS to determine compound levels.

[4] = biological target: T2, eIF4F complex (Homo sapiens, UniProt Q04637); assay: m7GTP pull-down assay, BRAFi-sensitive and -resistant melanoma cells; assay type: cell-based
T2 construct: PLX4032), or Compound 38; endogenous in cells; host or cells: A375, A375R, Lu1205R, WM793R melanoma cells
Method: as §1
As levels of the eIF4F complex inversely correlate with the effectiveness of various cancer therapies, the integrity of the eIF4F complex after treating melanoma cells with a combination of BRAFi vemurafenib (PLX4032) and Compound 38 was assessed. […] A375 and A375R (PLX4032-resistant) cells were treated with vehicle (DMSO), a BRAFi (vemurafenib; PLX4032), or Compound 38 at the indicated doses for 24 hours. Cell lysates ([…]) were subjected to m^7GTP pull-down. Amounts of the indicated proteins in input (5%) or pull-down (50%) samples were determined by Western blotting; 3-actin served as a loading control (input) and to exclude contamination (m^7GTP pull-down).

[5] = system: UACC903 and A375 cell lines; assay: Western blot validation of RPPA data; assay type: cell-based, human
Method: Cells were rinsed with PBS and lysed in culture plates with lysis buffer (50 mM Tris-HCl, pH 7.4, 150 mM NaCl, 1% NP-40, 1 mM EDTA, 10 μg/ml aprotinin, 1 μg/ml pepstatin A, 10 μg/ml leupeptin, 1 mM phenylmethylsulfonyl fluoride, and 1 mM sodium orthovanadate). Protein concentration was determined using Coomassie Plus Protein Assay Reagent (Thermo Scientific). Equal amounts of cell lysate proteins (50 μg) were resolved by SDS-PAGE and transferred to polyvinylidene difluoride membranes (PerkinElmer Life Sciences). Membranes were blocked with 5% BSA/TBST for 1 h and incubated with primary antibodies for 1 h at room temperate or overnight at 4° C., with shaking. Following three TBST washes, membranes were incubated for 1 h at room temperature with goat anti-rabbit Alexa Fluor 680 F(ab′)2 or goat anti-mouse IRDye 800 F(ab′)2 diluted 1:10,000. Bound antibodies were detected using the Odyssey Infrared Imaging System (LiCor Biosciences), or by exposing them to X-ray blue film.
A reverse phase protein array (RPPA) analysis of BRAF- and NRAS-mutant melanomas was performed to identify protein networks affected by Compound 38 (Table 4).

SMILES: O=C(/C=C/c1cncc(F)c1)c1c(-c2ccccc2)c2cc(Cl)ccc2[nH]c1=O [Compound 38, 6-Chloro-3-[3-(5-fluoro-pyridin-3-yl)-acryloyl]-4-phenyl-1H-quinolin-2-one]
- reduced tumor incidence [1]: 50%
- tumor onset, delayed (from - to) [1]: 20-26 weeks
- eIF4G1:eIF4E association (m7GTP pull-down) [2]: reduced eIF4G1:eIF4E association in both WT and 4E-BP DKO MEFs
- half-life [3]: 2.95 h
- clearance ([3]; IV 2 mg/kg): 67 mL/min/kg
- bioavailability ([3]; oral gavage 10 mg/kg): 20%
- dissociation of eIF4G1 from eIF4E in BRAFi-resistant cells ([4]; A375R, Lu1205R and WM793R cells): significantly promoted a dose dependent dissociation of eIF4G1 from eIF4E
- eIF4G1 association with eIF4E ([4]; A375 and A375R, 24 hours): more robust effect
- amount of eIF4G1 bound to eIF4E, Compound 38/BRAFi combination ([4]; combination with BRAFi PLX4032, not seen following BRAFi treatment alone): decreased the amount of eIF4G1 bound to eIF4E
- Western blot: phosphorylation of S6, mTOR, P70S6K, TSC2 and 4E-BP1 [5]: dose dependent inhibitory effects
